Source: patent publication US8232452B2, “Methods, means and compositions for enhancing agrobacterium-mediated plant cell transformation efficiency” (priority 2005, dated 2012)
Like-named read-outs stand apart in the source and are kept apart here.

Legend:
[1] = tested on: SIPK (a MAP Kinase from N. benthamiana); type: cell-based; details: induced with PtabF
[2] = tested on: N. benthamiana; assay: Measurement of calcium influx (aequorin) in N. benthamiana; details: N. benthamiana expressing the effector
Protocol: An intracellular increase of calcium was measured by Agrobacterium-mediated transient expression of 35S:aequorin [3]. Leaf discs (2*0.38 cm^2/well) were floated on H2O containing 2.5 μM coelentherazine overnight in the dark and at room temperature, and luminescence was measured after elicitation withl0 μg/ml PtabF using the Photek camera system.

[3] = tested on: Arabidopsis; assay: Oxidative burst in Arabidopsis expressing AvrPto / AvrPtoB; type: cell-based; details: Arabidopsis expressing the effector
Description: FIG. 13. […] Western Blot confirms the expression of the protein. […] The excel graph is a quantitative readout of the same experiment.

[4] = tested on: N. benthamiana; type: in vivo
[5] = tested on: tomato; assay: Nonhost HR assay in tomato; type: in vivo
Protocol: For elicitation of the HR, purified flagellin or INF1 were infiltrated (at 100 μg/ml) in the first fully expanded leaf of three to four week-old plants. A. tumefaciens mediated transient expression was performed as described previously. The tissue was usually used for further experimentation 2 dpi.

[6] = tested on: N. benthamiana; type: cell-based; details: induced with flagellin or INF1
[7] = tested on: Agrobacterium (C58C1); assay: Bacterial growth curves of A. tumefaciens C58C1 in N. benthamiana
[8] = tested on: N. benthamiana; type: cell-based; details: leaf tissue transiently expressing the effector, t=600 s
[9] = tested on: Arabidopsis leaf tissues; assay: Oxidative burst in leaf tissues (luminol based assay); type: cell-based; details: line SALK—044334 (efr-1) leaf tissue, 1 μM
Description: (B) Oxidative burst in leaf tissues of wild-type Col-0, efr-1 and fls2 plants. […] Results are averages±standard errors (n=8).
(§1) EF-Tu perception shares many features with perception of flagellin. Both PAMPs are peptides which activate their receptors in a two step process according to the concept of address-message (Bauer et al., 2001; Kunze et al., 2004). […] Thus, we speculated that perception of EF-Tu might involve a RLK gene related to FLS2 and that belongs to the group of RLKs induced after stimulation with both PAMPs. Starting with close relatives of FLS2 we established a collection of homozygous T-DNA-tagged mutants for induced LRR-RLKs from lines provided by the Salk collection (Alonso et al., 2003). These mutant lines were then tested for response to EF-Tu using the seedling growth inhibition assay that has been successfully employed previously to screen for flg22-insensitive mutants (Gómez-Gómez and Boller, 2000). […] Apart from lack of responses to EF-Tu-derived elicitors, this line was indistinguishable from wild-type plants and no other phenotype became apparent over several generations.

[10] = target: T1, receptor sites for EF-Tu (Arabidopsis thaliana, UniProt C0LGT6); assay: Number of receptor sites for EF-Tu (elf-^125I binding) after pretreatment with flg22
T1 construct: from tissue; host or cells: crude extracts of Arabidopsis seedlings
T1 sequence (C0LGT6 25-1031): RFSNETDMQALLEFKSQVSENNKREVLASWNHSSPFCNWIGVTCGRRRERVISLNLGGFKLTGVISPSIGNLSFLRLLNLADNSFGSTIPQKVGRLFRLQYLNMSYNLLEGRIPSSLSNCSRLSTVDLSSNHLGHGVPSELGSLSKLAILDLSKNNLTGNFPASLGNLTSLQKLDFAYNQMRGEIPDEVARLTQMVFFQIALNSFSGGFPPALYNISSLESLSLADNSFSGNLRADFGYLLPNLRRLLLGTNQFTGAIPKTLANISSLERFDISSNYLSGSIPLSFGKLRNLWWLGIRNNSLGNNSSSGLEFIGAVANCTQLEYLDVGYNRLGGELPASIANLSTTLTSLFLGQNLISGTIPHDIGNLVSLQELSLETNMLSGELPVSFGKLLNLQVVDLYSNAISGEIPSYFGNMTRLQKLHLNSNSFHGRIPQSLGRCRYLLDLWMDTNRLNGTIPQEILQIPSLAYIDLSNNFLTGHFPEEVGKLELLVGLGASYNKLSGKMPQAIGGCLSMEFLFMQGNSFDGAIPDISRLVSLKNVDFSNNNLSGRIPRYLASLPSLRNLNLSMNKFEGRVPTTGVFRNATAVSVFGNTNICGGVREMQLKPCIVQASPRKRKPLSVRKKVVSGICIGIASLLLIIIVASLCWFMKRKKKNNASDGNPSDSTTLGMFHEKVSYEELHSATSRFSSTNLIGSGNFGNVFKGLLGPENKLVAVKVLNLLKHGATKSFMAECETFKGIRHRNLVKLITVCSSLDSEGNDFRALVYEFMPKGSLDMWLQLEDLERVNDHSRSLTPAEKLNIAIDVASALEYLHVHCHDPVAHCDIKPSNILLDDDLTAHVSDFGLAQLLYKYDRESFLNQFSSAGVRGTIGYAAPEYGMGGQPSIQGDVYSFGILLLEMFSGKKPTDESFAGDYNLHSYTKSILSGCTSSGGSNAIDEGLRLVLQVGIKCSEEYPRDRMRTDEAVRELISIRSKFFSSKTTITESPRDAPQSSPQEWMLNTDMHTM

[11] = tested on: Arabidopsis cells; assay: Extracellular (medium) alkalinization in cultured cells; type: cell-based; details: 100 nM peptide, saturating dose
[12] = tested on: Arabidopsis seedlings; assay: Seedling growth inhibition assay; type: in vivo; details: line SALK—044334 (efr-1), 1 μM
Protocol: Fresh weight of seedlings was determined 7 days later. Values represent average and standard variation of n=6.
Pictures were taken after one week of treatment.
as §1

[13] = tested on: A. tumefaciens; assay: Agrobacterium-mediated transient GUS expression in Arabidopsis leaves with co-injected peptides; details: co-injection of 1 μM peptide with A. tumefaciens, 4 dpi
Protocol: (B) Quantitative GUS assays with extracts from leaves of wild type and efr-1 mutants 4 days after infiltration with 2*10^8 A. tumefaciens carrying pBIN19-35S::GUS. […] Bars and error bars represent mean and standard error of n=6 independent extractions from two leaves each.
Agrobacterium-mediated expression in Arabidopsis was performed as described previously (Joh et al., 2005). Briefly, Agrobacterium GV3101 strain carrying the GUS-intron transgene in pBIN19g was grown overnight in L medium at 28° C. This culture was diluted 10-fold in fresh L medium and incubated for further 5 h. Bacteria were then collected by centrifugation, resuspended in water at an OD600 of 0.4, and injected into leaves of 4-5 week-old Arabidopsis plants.
To test if EF-Tu perception plays a role in restricting A. tumefaciens infection, wild-type (Col-0) and efr-1 leaves were injected with the hyper-virulent non-tumorigenic strain of A. tumefaciens (GV3101) harbouring a binary plasmid containing a β-glucuronidase (GUS)-intron construct that allows expression in plants but not in bacteria.

[14] = tested on: Agrobacterium; type: in vivo
[15] = tested on: Arabidopsis; assay: Flagellin HR in Arabidopsis; type: in vivo
[16] = tested on: rice; assay: Flagellin HR in rice; type: in vivo

AvrPtoB: P. syringae type-III effector protein expressed in the plant tissue, unrelated to AvrPto
effect on MAPK activation [1]: Suppression | effect on calcium burst [2]: suppress calcium burst | effect on oxidative burst [3]: exact same result | effect on nonhost HR induced by flagellin [4]: suppress this nonhost HR | effect on nonhost HR induced by flagellin ([5]; tomato): suppress this nonhost HR | effect on callose deposition [6]: Suppression | growth of Agrobacterium (C58C1) [7]: enhance the growth of Agrobacterium | effect on PtabF-induced ROS [8]: Suppression of PtabF-induced ROS

flg22: the flagellin peptide recognized by most plants (QRLTTGYRINSAKDDAAGLQIS)
oxidative burst [9]: full response | increase in specific receptor sites for the other PAMP (EF-Tu) ([10]; cultured cells, data not shown): > 2 fold | number of specific binding sites for EF-Tu relative to controls ([10]; seedlings, 1 μM flg22, within 4 to 6 h of treatment): > 2 fold | time lag of alkalinization [11]: only few seconds | seedling growth [12]: as sensitive to treatment with flg22 as wild-type seedlings | transformation (GUS activity) ([13]; efr-1 leaves): strongly reduced transformation | GUS expression ([13]; wild type leaves): nearly abolished GUS expression

O=CC[C@@H](O)[C@H](O)[C@H](O)CO [2-DDG, 2-deoxy-D-Glucose]
level of GUS expression ([14]; 250 μM, sprayed one day prior to Agrobacterium infiltration): seemed to improved the level of GUS expression | level of GUS expression ([14]; spray pre-treatment combined with co-infiltration, xanthan gum 150 μg/ml, 2-DDG 250 μM (FIG. 17)): significantly enhanced

Flagellin
nonhost HR ([4]; flagellin from Pseudomonas syringae): induces a nonhost HR | nonhost HR ([5]; tomato (76R), flagellin from Pseudomonas syringae): induces a nonhost HR | HR [15]: No flagellin HR | HR [16]: induce the HR
